For series [1] the following is noted: background statement; cited from earlier work.
For series [2] the following is noted: background statement; cited from earlier work. This is another data set of the same source.
Series [3] can be described thus: equilibrium solubility and dissolution profile of oxypurinol in aqueous solution. It is filed as physicochemical. Particulars: for equilibrium solubility, dissolution and solubility: compared to oxypurinol free acid (FIG. 1).

With `Oc1ncnc2[nH]ncc12` [Allopurinol, 4-hydroxy-pyrazolo[3,4-d]pyrimidine], in series [1], the bioavailability entry is recorded as “poorly bioavailable”. Moreover, the solubility result in series [2] is reported as “poorly soluble”.

Consider `O=c1[nH]c(=O)c2c[nH]nc2[nH]1` [oxypurinol, 4,6-dihydroxypyrazolo[3,4-d]pyrimidine], for which the “equilibrium solubility, dissolution and solubility” value in series [3] (aqueous solution, in the presence of a 1 molar equivalent of lysine, FIG. 2) is “increased dissolution and solubility”; in series [3] (in the presence of a 1 molar equivalent of L-arginine, FIG. 3) it was “increased dissolution and solubility”. In series [3] (in choline, FIG. 4), the “equilibrium solubility, dissolution” value was “increased dissolution”. For the same compound, in series [3] (using organic and or basic organic molecules, in aqueous solutions, compared to oxypurinol free acid), the “equilibrium solubility, dissolution rate and solubility” value is “increased equilibrium solubility, increased dissolution rate and solubility”. In addition, the bioavailability entry in series [1] is given as “poorly bioavailable”. Also, the solubility entry in series [2] is listed as “poorly soluble”.

The record behind these values is US11406713B2, “Xanthine oxidase inhibitor formulations” (XORTX THERAPEUTICS, INC., priority 2013, dated 2022).
